In PubChem BioAssay (NCI) one finds TGI data, which are given here for eleven compounds.

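Cultured in 96-well plates, cells were exposed to test compound for 48 hours across five concentrations. At the TGI there is no net growth.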

Some test systems named below: BT-549 breast; CAKI-1 renal; HOP-92 NSCLC; IGROV1 ovarian; KM12 colon; MDA-MB-435; MDA-N; MOLT-4 leukemia; NCI-H226 lung; NCI-H460 lung; NCI/ADR-RES ovarian; PC-3 prostate; SNB-19 CNS; SR leukemia; SW-620 colon; T-47D breast; TK-10 renal; U251 CNS; UO-31 renal; SF-539 CNS.
What all share (assay): NCI tumour cell line growth inhibition, 48 h

For the compound `Cc1ccc2c(c1)C=CC1(O2)N(c2ccccc2)C(=S)OC1(C)C` (stereo not given), the TGI in the test on BT-549 breast, in the test with CAKI-1 renal, in the test with HOP-92 NSCLC, in the test on IGROV1 ovarian, in the test on KM12 colon and in the test on MDA-MB-435 was above 100 µM in each case. For the same compound, the TGI was 94.3 µM in the test with MDA-N; above 100 µM in the test on MOLT-4 leukemia; above 100 µM in the test with NCI-H226 lung; above 100 µM with NCI-H460 lung; above 100 µM with NCI/ADR-RES ovarian; above 100 µM in the test with PC-3 prostate. Besides, the TGI with SNB-19 CNS is above 100 µM; with SR leukemia it was 78.9 µM; with SW-620 colon it was above 100 µM; in the test on T-47D breast, 20.7 µM; with TK-10 renal, above 100 µM; in the test with U251 CNS it was above 100 µM. Also, the TGI in the test with UO-31 renal was above 100 µM.

In the case of `O=c1oc2ccccc2c(O)c1C(c1cccc(C(c2c(O)c3ccccc3oc2=O)c2c(O)c3ccccc3oc2=O)c1)c1c(O)c2ccccc2oc1=O`, the TGI with BT-549 breast is above 100 µM; in the test on CAKI-1 renal it was 49.5 µM; in the test on HOP-92 NSCLC, above 100 µM; in the test on IGROV1 ovarian, above 100 µM; with KM12 colon, above 100 µM; with MDA-MB-435 it was above 100 µM. Moreover, the TGI in the test on MDA-N is above 100 µM; in the test with MOLT-4 leukemia, 63.3 µM; with NCI-H226 lung it was above 100 µM; in the test on NCI-H460 lung, above 100 µM; with NCI/ADR-RES ovarian it was above 100 µM; in the test with PC-3 prostate it was above 100 µM. Besides, the TGI was 53.9 µM with SF-539 CNS; 58.8 µM in the test on SR leukemia; above 100 µM in the test on SW-620 colon; above 100 µM in the test on T-47D breast; above 100 µM in the test on TK-10 renal; above 100 µM in the test with U251 CNS.

`COC(=O)[C@]12C3=C(O)C(=O)C[C@H]1OC[C@H]2C=CC3`: the TGI with BT-549 breast, in the test with CAKI-1 renal, in the test on HOP-92 NSCLC, with IGROV1 ovarian, with KM12 colon and in the test with MDA-MB-435 was above 100 µM in each case. Besides, the TGI in the test on MDA-N, in the test with NCI-H460 lung, in the test on NCI/ADR-RES ovarian, in the test on PC-3 prostate, in the test with SNB-19 CNS and in the test on SR leukemia was above 100 µM each time. Besides, the TGI was 63.4 µM with SW-620 colon; above 100 µM with T-47D breast; above 100 µM with TK-10 renal; above 100 µM in the test on U251 CNS; above 100 µM in the test with UO-31 renal.

Turning to `O=CC(O)C(O)C1OC(=O)c2cc(O)c(O)c(O)c2C2=C(O)C(O)=C3OC(=O)c4c(c(O)c(O)c5c4C3C2C(=O)O5)-c2c(cc(O)c(O)c2O)C(=O)OCC1O` (stereo not given), the TGI was above 100 µM with BT-549 breast; 37.7 µM with CAKI-1 renal; 98.2 µM in the test with HOP-92 NSCLC; above 100 µM in the test with IGROV1 ovarian; 31.2 µM in the test with KM12 colon; 34.1 µM with MDA-MB-435. In addition, the TGI with MDA-N was 41.1 µM; in the test with MOLT-4 leukemia it was 63.3 µM; in the test with NCI-H226 lung, above 100 µM; in the test on NCI-H460 lung, above 100 µM; with NCI/ADR-RES ovarian it was above 100 µM; in the test with PC-3 prostate, above 100 µM. The TGI in the test on SNB-19 CNS is above 100 µM; with SR leukemia it was 63 µM; in the test on SW-620 colon, 36.3 µM; with T-47D breast it was above 100 µM; in the test with U251 CNS it was 70.2 µM; with UO-31 renal it was above 100 µM.

As to `CC[C@@H]([C@H](O)c1ccccc1Cl)[N+](=O)[O-]`, the TGI with BT-549 breast, in the test on CAKI-1 renal, with HOP-92 NSCLC, with IGROV1 ovarian, in the test with KM12 colon and in the test on MDA-MB-435 was above 100 µM in each case. In addition, the TGI in the test with MDA-N, in the test on NCI-H226 lung, in the test with NCI-H460 lung, in the test with NCI/ADR-RES ovarian, in the test on PC-3 prostate and in the test on SF-539 CNS was above 100 µM throughout. The TGI in the test on SNB-19 CNS, in the test with SR leukemia, in the test with SW-620 colon, in the test with T-47D breast, in the test with TK-10 renal and in the test on U251 CNS was above 100 µM in each case. Moreover, the TGI in the test with UO-31 renal was above 100 µM.

`O=C(Cn1c(C(=O)/C=C/c2ccc(Cl)cc2)nc2ccccc21)c1ccc(Cl)cc1`: the TGI in the test with BT-549 breast was 55.2 µM; in the test with HOP-92 NSCLC, above 100 µM; in the test with IGROV1 ovarian, 71.7 µM; with KM12 colon, 27.6 µM; with MDA-MB-435, 37.5 µM; with MDA-N, 61 µM. For the same compound, the TGI with MOLT-4 leukemia was 14.5 µM; with NCI-H226 lung, 64.4 µM; with NCI-H460 lung, 28.9 µM; with NCI/ADR-RES ovarian, 63 µM; in the test on PC-3 prostate, above 100 µM; in the test on SF-539 CNS, 38.6 µM. Further, the TGI with SNB-19 CNS was 69.5 µM; with SR leukemia it was 22.9 µM; with SW-620 colon, above 100 µM; in the test on T-47D breast, above 100 µM; with TK-10 renal, 98.5 µM; in the test with U251 CNS, 33.4 µM. The TGI in the test with UO-31 renal came out at 43 µM.

Take `C[C@@H](NC(=O)Cn1c(Cl)nc2ccccc21)c1ccccc1`: the TGI with BT-549 breast, with CAKI-1 renal, with HOP-92 NSCLC, in the test on KM12 colon, with MDA-MB-435 and with MDA-N was above 100 µM each time. The TGI in the test on MOLT-4 leukemia, with NCI-H226 lung, in the test on NCI-H460 lung, in the test with NCI/ADR-RES ovarian, in the test with PC-3 prostate and with SF-539 CNS was above 100 µM each time. For the same compound, the TGI in the test on SNB-19 CNS, with SR leukemia, in the test with SW-620 colon, in the test with T-47D breast, in the test with TK-10 renal and in the test with U251 CNS was above 100 µM in each case. The TGI with UO-31 renal is above 100 µM.

Regarding `Cc1ccc(C(C)C)c(OCC(=O)N/N=C/c2c[nH]c3ccc(Br)cc23)c1`, the TGI in the test with BT-549 breast was 18.7 µM; with CAKI-1 renal, 11.5 µM; in the test on HOP-92 NSCLC it was 27.8 µM; in the test on IGROV1 ovarian, 13.1 µM; with KM12 colon, 6.3 µM; with MDA-MB-435 it was 2.93 µM. The TGI came to 2.94 µM with MDA-N; 14.2 µM in the test on MOLT-4 leukemia; 6.4 µM in the test on NCI-H460 lung; 6.6 µM in the test with NCI/ADR-RES ovarian; 4.43 µM with PC-3 prostate; 4 µM in the test on SF-539 CNS. Besides, the TGI in the test on SNB-19 CNS is 9.59 µM; in the test on SR leukemia, 4.97 µM; in the test with SW-620 colon, 18.6 µM; in the test with T-47D breast, 24.8 µM; with TK-10 renal, 9.15 µM; with U251 CNS, 11.1 µM. Further, the TGI in the test on UO-31 renal was 13.7 µM.

`C1=Nc2ccc(cc2)-c2ccc(cc2)N=Cc2ccc(cc2)OCc2cccc(n2)COc2ccc1cc2`: the TGI in the test on BT-549 breast, in the test on CAKI-1 renal, with HOP-92 NSCLC, in the test with IGROV1 ovarian, in the test on KM12 colon and in the test with MDA-MB-435 was above 100 µM each time. For the same compound, the TGI in the test on MDA-N, with MOLT-4 leukemia, with NCI-H226 lung, with NCI-H460 lung, in the test with NCI/ADR-RES ovarian and in the test with PC-3 prostate was above 100 µM throughout. For the same compound, the TGI in the test on SF-539 CNS, in the test on SNB-19 CNS, with SR leukemia, in the test with SW-620 colon, in the test with T-47D breast and in the test on U251 CNS was above 100 µM each time. The compound further displayed a TGI in the test on UO-31 renal above 100 µM.

As to `C=CCSC1=N/C(=C\c2ccc(OC)cc2)C(=O)N1CC=C`, the TGI is 74.4 µM in the test on BT-549 breast; above 100 µM in the test with CAKI-1 renal; above 100 µM in the test on HOP-92 NSCLC; above 100 µM with IGROV1 ovarian; 71.7 µM in the test with KM12 colon; above 100 µM with MDA-MB-435. The TGI in the test with MDA-N was 59.8 µM; in the test on MOLT-4 leukemia, 37.1 µM; with NCI-H460 lung it was above 100 µM; in the test on NCI/ADR-RES ovarian it was above 100 µM; in the test with PC-3 prostate it was 80.1 µM; in the test with SF-539 CNS, above 100 µM. Further, the TGI was above 100 µM in the test on SNB-19 CNS; 43.7 µM with SR leukemia; above 100 µM in the test on SW-620 colon; above 100 µM in the test on T-47D breast; above 100 µM with TK-10 renal; above 100 µM in the test on U251 CNS. The TGI with UO-31 renal is above 100 µM.

For `CC1(C)OC[C@H](COCOP2(=O)Oc3ccc4ccccc4c3-c3c(ccc4ccccc34)O2)O1`, the TGI in the test on BT-549 breast is 31 µM; with HOP-92 NSCLC it was 28.5 µM; with IGROV1 ovarian, 72.2 µM; in the test with KM12 colon, 29.4 µM; in the test on MDA-MB-435, 26.5 µM; in the test on MDA-N, 26.8 µM. Further, the TGI with MOLT-4 leukemia amounted to 41.4 µM; with NCI-H226 lung it was 37.3 µM; in the test on NCI-H460 lung, 33.3 µM; in the test on NCI/ADR-RES ovarian, 36 µM; in the test with PC-3 prostate, 27.6 µM; in the test with SF-539 CNS, 39.8 µM. Moreover, the TGI in the test with SNB-19 CNS came out at 34.7 µM; in the test with SR leukemia it was 45.6 µM; in the test on SW-620 colon, 29.7 µM; in the test on T-47D breast, 36.2 µM; with TK-10 renal, 35.6 µM; in the test on U251 CNS, 31.9 µM. In addition, the TGI with UO-31 renal was 32.6 µM.
